Reference: US20140363425A1, “SYSTEMS AND METHODS FOR I[…] HAVING ACTIVATED PR[…]” (priority 2013, published 2014)

Columns and labels:
PR [1] = assay type: cell-based, human; details: AB32 cells (PR expressing clone of MCF-10A), 10 nM, 45 minutes, false discovery rate 0.27%
Description: (§1) In one aspect, PR genomic interactions were mapped in T-47D breast cancer cells and in the AB32 cell line: a stable PR expressing clone of the MCF-10A immortalized normal breast cell line. Cells were treated with the progestin ORG2058 (10 nM, 45 minutes), followed by PR-chromatin immunoprecipitation (ChIP) and Illumina sequencing. Sequences were aligned to the human genome and genomic regions enriched in the alignments were identified using the Bowtie and ERANGE [38] software tools (false discovery rate 0.27%).
(§2) Cells were cultured to 80% confluency in 15 cm tissue culture dishes, then treated for 45 minutes with 10 nM ORG2058 or vehicle. Chromatin was subsequently cross-linked by the addition of formaldehyde to the culture medium to a final concentration of 1% and incubation for 10 minutes at 37° C. Media were immediately removed and the cells were washed with cold phosphate buffered saline and harvested by scraping. Cells were collected by centrifugation and pellets were lysed 10 minutes at 4° C. in SDS buffer (1% SDS; 10 mM EDTA; 50 mM Tris-HCl, pH 8). The lysates were sonicated at 4° C. with a Branson 450 sonicator, using seven one minute bursts at 40% amplitude and 60% duty, each separated by a rest of at least one minute. Lysates were centrifuged at 13,000×g at 4° C. for 15 minutes to remove debris. […]

T-47D cells = test: Whole genome gene expression microarray in T-47D cells; assay type: cell-based, human; details: 10 nM, 2, 6 and 24 h, self-organizing map clustering
Description: (§3) Total RNA was isolated using RNAqueous purification columns (Invitrogen). Total RNA (500 ng) was amplified and biotin labelled using Illumina TotalPrep reagents (Invitrogen). The amplified samples (750 ng) were hybridized to human whole genome HT-12 gene expression bead arrays using the recommended Illumina reagents and following the manufacturer's protocol. Raw data were analysed using Genome Studio software (Illumina). After background subtraction data and cubic spline normalization, differential expression p values were determined using the Illumina custom model of Genome Studio. Data were further analysed using Microsoft Excel and SPSS statistical software. Hierarchical clustering and self organizing map clustering were performed using GenePattern.
(A and B) Overlap between PR binding regions and progestin regulated genes in (A) T-47D and (B) AB32 cells. (C and D) PR binding regions within 10 kb or in the 5′-UTR of genes regulated at 2, 6 and 24 h in (C) T-47D and (D) AB32 cells. (E) Genes with patterns of progestin regulation in T-47D cells that grouped together were identified by SOM cluster analysis using Gene Pattern. […]
In reference to FIG. 3B, T-47D and AB32 cells were treated with 10 nM ORG2058 (ORG) or vehicle for 2, 6 and 24 h. Transcript expression was measured by whole genome microarray. […]

AB32 cells = test: Whole genome gene expression microarray in AB32 cells; assay type: cell-based, human; details: 10 nM, 2, 6 and 24 h
Description: as §3
In reference to FIG. 3B, T-47D and AB32 cells were treated with 10 nM ORG2058 (ORG) or vehicle for 2, 6 and 24 h. Transcript expression was measured by whole genome microarray. Genes that were differentially expressed in ORG2058 treated samples relative to the untreated control at one or more time point in T-47D or AB32 cells were compared by unsupervised hierarchical cluster analysis. Red—increased expression, green—decreased expression relative to vehicle treated control.
In reference to FIG. 10, progestin regulated transcripts were identified in AB32 cells at 2, 6 and 24 h treatment with 10 nM ORG2058 by gene expression profiling. […]

PR [2] = molecular target: T1, PR (Homo sapiens, UniProt P06401); assay type: cell-based; set-up: endogenous in cells; host or cells: T-47D; details: T-47D breast cancer cells, 10 nM, 45 minutes, false discovery rate 0.27%
T1 sequence (P06401 1-933): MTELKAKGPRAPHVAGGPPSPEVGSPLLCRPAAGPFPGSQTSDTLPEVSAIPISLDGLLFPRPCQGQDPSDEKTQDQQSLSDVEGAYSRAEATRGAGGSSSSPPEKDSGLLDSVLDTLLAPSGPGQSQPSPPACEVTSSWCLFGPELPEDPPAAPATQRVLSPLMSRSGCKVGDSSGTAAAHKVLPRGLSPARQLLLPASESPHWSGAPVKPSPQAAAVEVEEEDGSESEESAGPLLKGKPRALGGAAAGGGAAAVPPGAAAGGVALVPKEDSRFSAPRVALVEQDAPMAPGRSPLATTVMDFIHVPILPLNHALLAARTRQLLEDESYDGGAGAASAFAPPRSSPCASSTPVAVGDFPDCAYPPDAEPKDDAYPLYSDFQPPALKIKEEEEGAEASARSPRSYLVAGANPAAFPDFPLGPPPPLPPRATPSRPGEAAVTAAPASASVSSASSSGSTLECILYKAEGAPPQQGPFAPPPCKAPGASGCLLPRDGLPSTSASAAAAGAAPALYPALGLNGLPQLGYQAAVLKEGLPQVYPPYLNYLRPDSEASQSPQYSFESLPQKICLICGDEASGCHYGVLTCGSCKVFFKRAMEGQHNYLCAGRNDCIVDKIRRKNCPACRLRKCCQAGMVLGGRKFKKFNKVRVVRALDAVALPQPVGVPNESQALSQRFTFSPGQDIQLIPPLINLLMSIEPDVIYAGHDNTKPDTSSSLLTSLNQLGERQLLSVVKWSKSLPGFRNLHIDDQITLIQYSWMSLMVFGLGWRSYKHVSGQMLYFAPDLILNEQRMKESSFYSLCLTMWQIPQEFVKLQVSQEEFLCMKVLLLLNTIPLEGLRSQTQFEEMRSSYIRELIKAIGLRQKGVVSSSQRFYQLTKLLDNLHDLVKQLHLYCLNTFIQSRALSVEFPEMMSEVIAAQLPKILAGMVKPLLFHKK
Description: as §1, §2

PR [3] = molecular target: T1, PR; details: cited from earlier work

SMILES	PR binding regions detected (PR [1])	cluster of transcripts decreased at all time points, beginning to return toward basal levels at 24 h (T-47D cells)	direction of transcript regulation (AB32 cells)	peaks of PR binding identified (PR [2])	dissociation from PR compared with ORG2058 (PR [3])
CC[C@@H]1C[C@H]2[C@@H]3CCC4=CC(=O)CC[C@@H]4[C@H]3CC[C@]2(C)[C@H]1C(=O)CO [ORG2058, (8R,9S,10R,13S,14S,16R,17S)-16-ethyl-17-(2-hydroxyacetyl)-13-methyl-2,6,7,8,9,10,11,12,14,15,16,17-dodecahydro-1H-cyclopenta[a]phenanthren-3-one]	8117	26	more transcripts were decreased than increased	6312	–
CC(=O)[C@H]1CC[C@H]2[C@@H]3CCC4=CC(=O)CC[C@]4(C)[C@H]3CC[C@]12C [progesterone]	–	–	–	–	dissociates from PR more rapidly
